# Source: publication PMC2669215, “SVOP Is a Nucleotide Binding Protein” (PLoS ONE, 2009)
# Key:
# SVOP-FLAG [1] = target: T1, SVOP-FLAG (Rattus norvegicus, UniProt Q9Z2I7); assay: competition with 8-azido-ATP[γ] biotin photoaffinity labeling, western blot; type: binding; conditions: read-out: half maximum inhibition concentration
# T1 construct: full length (548 residues), C-terminal FLAG tag (DYKDDDK) kept; expressed in HEK293, purified on anti-FLAG M2 gel
# T1 sequence (Q9Z2I7 1-548): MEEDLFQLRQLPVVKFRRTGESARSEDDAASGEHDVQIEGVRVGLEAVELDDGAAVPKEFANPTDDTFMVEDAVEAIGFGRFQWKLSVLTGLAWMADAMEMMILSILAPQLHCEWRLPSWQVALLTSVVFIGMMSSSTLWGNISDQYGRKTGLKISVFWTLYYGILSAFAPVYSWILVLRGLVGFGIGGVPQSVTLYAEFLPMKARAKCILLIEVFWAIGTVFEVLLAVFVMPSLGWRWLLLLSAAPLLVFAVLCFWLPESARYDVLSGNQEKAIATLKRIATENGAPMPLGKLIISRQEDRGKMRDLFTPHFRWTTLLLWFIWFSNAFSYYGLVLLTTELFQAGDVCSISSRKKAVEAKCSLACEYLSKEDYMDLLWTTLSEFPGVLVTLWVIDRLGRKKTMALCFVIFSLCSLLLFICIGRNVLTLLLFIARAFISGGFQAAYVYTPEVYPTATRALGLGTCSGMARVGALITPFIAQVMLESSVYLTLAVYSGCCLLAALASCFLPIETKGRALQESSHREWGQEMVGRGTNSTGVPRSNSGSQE
# SVOP-FLAG [2] = target: T1, SVOP-FLAG; assay: as above; type: binding; conditions: 100 µM 8-azido-ATP[γ] biotin, pH 7.4, on ice
SMILES,IC50 (SVOP-FLAG [1]) [µM],decrease of labeling at 1 mM (SVOP-FLAG [2])
Nc1ncnc2c1ncn2[C@@H]1O[C@H](COP(=O)(O)OP(=O)(O)OP(=O)(O)O)[C@@H](O)[C@H]1O [ATP],~750,–
Nc1ccn([C@@H]2O[C@H](COP(=O)(O)OP(=O)(O)OP(=O)(O)O)[C@@H](O)[C@H]2O)c(=O)n1 [CTP],–,TTP and CTP produced the least inhibition
Nc1nc2c(ncn2[C@@H]2O[C@H](COP(=O)(O)OP(=O)(O)OP(=O)(O)O)[C@@H](O)[C@H]2O)c(=O)[nH]1 [GTP],–,"ATP, GTP and NAD displayed the strongest inhibition"
NC(=O)c1ccc[n+]([C@@H]2O[C@H](COP(=O)(O)OP(=O)(O)OC[C@H]3O[C@@H](n4cnc5c(N)ncnc54)[C@H](O)[C@@H]3O)[C@@H](O)[C@H]2O)c1 [NAD],~250,–
Cc1cn([C@H]2C[C@H](O)[C@@H](COP(=O)(O)OP(=O)(O)OP(=O)(O)O)O2)c(=O)[nH]c1=O [TTP],–,TTP and CTP produced the least inhibition
